Results from patent US20230103791A1 (GLAXOSMITHKLINE INTELLECTUAL PROPERTY DEVELOPMENT LIMITED, priority 2019, published 2023).

biological target: T1, human Nav1.8 (Homo sapiens, UniProt Q9Y5Y9); assay: Nav1.8 sodium channels assay, QPatch 48 HTX electrophysiology in HEK293-Nav1.8 cells; assay type: cell-based; conditions: Table 1; HEK293-Nav1.8, QPatch 48 HTX, half inactivation state voltage protocol (V1/2); single run or average of two or more runs; read-out: Nav1.8 pIC50 (converted)
T1 construct: expressed in transfected cells; host or cells: HEK293 (HEK293-Nav1.8)
In short: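 HEK293 cells co-expressing human Nav1.8, Navβ1 and TREK1 were voltage-clamped on QPatch 48 HTX. The V1/2 protocol ran at 0.07 Hz: hold −100 mV, 20 ms to 0 mV, 8 s at −46 mV, 20 ms at −100 mV, then 20 ms at 0 mV (P2). P2 current was fitted over 6-8 concentrations for IC50, with vehicle wells used to correct for run-down.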

T1 sequence (Q9Y5Y9 whole entry): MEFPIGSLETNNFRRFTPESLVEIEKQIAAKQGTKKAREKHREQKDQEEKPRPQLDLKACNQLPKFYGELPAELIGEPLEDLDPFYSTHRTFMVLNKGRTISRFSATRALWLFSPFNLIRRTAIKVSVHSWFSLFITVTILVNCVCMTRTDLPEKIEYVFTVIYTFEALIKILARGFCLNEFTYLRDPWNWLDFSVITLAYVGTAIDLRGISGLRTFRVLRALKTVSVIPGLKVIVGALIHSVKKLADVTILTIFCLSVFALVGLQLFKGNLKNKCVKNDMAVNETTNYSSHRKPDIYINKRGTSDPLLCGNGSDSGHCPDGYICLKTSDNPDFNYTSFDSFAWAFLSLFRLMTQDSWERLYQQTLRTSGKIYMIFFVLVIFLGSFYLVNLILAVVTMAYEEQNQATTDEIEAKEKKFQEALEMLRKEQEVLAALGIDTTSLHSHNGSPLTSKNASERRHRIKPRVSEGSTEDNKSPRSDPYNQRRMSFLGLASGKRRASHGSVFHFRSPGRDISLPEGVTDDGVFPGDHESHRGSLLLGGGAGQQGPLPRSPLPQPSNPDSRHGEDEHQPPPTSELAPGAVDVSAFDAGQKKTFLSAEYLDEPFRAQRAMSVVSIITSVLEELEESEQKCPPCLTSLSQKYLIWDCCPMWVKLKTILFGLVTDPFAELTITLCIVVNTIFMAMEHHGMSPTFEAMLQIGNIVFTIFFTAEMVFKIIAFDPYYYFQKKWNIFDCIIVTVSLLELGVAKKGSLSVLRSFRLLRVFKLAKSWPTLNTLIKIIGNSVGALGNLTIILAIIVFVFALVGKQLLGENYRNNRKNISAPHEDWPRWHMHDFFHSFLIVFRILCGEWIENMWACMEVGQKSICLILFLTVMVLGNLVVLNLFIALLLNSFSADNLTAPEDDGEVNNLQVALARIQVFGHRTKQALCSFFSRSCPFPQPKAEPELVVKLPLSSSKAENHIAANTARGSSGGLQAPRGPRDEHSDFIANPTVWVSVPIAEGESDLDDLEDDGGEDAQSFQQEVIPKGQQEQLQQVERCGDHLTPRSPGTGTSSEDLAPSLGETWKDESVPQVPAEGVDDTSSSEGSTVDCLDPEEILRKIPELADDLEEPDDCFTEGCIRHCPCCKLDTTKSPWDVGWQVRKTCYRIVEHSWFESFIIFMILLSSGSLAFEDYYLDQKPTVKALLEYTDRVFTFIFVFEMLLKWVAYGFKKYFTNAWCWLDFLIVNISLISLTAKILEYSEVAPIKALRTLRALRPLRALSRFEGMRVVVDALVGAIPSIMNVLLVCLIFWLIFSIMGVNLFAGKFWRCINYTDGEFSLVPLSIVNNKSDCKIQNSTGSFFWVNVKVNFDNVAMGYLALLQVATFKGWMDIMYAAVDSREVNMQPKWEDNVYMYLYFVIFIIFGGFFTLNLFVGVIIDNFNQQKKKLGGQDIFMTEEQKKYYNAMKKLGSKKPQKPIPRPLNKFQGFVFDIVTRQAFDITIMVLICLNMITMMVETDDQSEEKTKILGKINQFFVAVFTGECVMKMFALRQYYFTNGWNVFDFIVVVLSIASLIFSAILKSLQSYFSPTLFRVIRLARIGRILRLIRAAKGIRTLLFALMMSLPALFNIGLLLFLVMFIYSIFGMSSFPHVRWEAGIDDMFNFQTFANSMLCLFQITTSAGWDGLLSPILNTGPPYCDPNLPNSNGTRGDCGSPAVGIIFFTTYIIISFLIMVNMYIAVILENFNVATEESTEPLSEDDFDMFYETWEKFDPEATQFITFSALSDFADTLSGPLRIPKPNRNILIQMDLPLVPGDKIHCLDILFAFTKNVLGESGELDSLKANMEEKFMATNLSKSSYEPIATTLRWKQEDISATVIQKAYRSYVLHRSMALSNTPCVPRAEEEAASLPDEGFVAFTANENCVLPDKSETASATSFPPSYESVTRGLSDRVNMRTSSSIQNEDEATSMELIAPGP
T1 sequence (Q07699 19-218 partner): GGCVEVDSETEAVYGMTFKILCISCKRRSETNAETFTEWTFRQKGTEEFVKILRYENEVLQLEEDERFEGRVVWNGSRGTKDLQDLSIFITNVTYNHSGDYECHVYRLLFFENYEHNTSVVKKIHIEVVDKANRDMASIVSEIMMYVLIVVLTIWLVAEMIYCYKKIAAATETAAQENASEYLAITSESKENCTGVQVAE

Q: `Cc1cc(F)ccc1N1CN(c2ccc(=O)[nH]c2C#N)C(=O)c2ccc(C(F)(F)F)cc21` [drawing 300, 3-(1-(4-fluoro-2-methylphenyl)-4-oxo-7-(trifluoromethyl)-1,4-dihydroquinazolin-3(2H)-yl)-6-oxo-1,6-dihydropyridine-2-carbonitrile] was tested. Which IC50 did it give?
A: Its IC50 is 251 nM.

Q: How did the IC50 turn out when `Cc1[nH]c(=O)ccc1N1CN(c2ccc(F)cc2F)c2cc(C(F)(F)F)ccc2C1=O` [drawing 301, 1-(2,4-difluorophenyl)-3-(2-methyl-6-oxo-1,6-dihydropyridin-3-yl)-7-(trifluoromethyl)-2,3-dihydroquinazolin-4(1H)-one] was run?
A: The IC50 was 251 nM.

Q: Which IC50 does the source give for `CCOc1ccc(N2CN(c3ccc(=O)[nH]c3C)C(=O)c3ccc(C(F)(F)F)cc32)cc1` [drawing 302, 1-(4-ethoxyphenyl)-3-(2-methyl-6-oxo-1,6-dihydropyridin-3-yl)-7-(trifluoromethyl)-2,3-dihydroquinazolin-4(1H)-one] here?
A: The IC50 was 398 nM.

Q: For `Cc1cc(F)ccc1N1CN(c2ccc(=O)[nH]c2C)C(=O)c2ccc(OC(F)(F)F)cc21` [drawing 303, 1-(4-fluoro-2-methylphenyl)-3-(2-methyl-6-oxo-1,6-dihydropyridin-3-yl)-7-(trifluoromethoxy)-2,3-dihydroquinazolin-4(1H)-one], which IC50 is on record?
A: The IC50 was 3.16 nM.

Q: How did the IC50 turn out when `Cc1ccc2c(c1)N(c1ccc(F)cc1C)CN(c1ccc(=O)[nH]c1C)C2=O` [drawing 304, 1-(4-fluoro-2-methylphenyl)-7-methyl-3-(2-methyl-6-oxo-1,6-dihydropyridin-3-yl)-2,3-dihydroquinazolin-4(1H)-one] was run?
A: The IC50 was 1.58 nM.

Q: `Cc1cc(F)ccc1N1CN(c2ccc(=O)[nH]c2C)C(=O)c2cc(C(F)(F)F)ccc21` [drawing 305, 1-(4-fluoro-2-methylphenyl)-3-(2-methyl-6-oxo-1,6-dihydropyridine-3-yl)-6-(trifluoromethyl)-2,3-dihydroquinazolin-4(1H)-one] was tested. Which IC50 did it give?
A: Its IC50 is 12.6 nM.

Q: Which IC50 does the source give for `Cc1cc(F)ccc1N1CN(c2cnc(=O)[nH]c2)C(=O)c2ccc(C(F)(F)F)cc21` [drawing 306, 1-(4-fluoro-2-methylphenyl)-3-(2-oxo-1,2-dihydropyrimidin-5-yl)-7-(trifluoromethyl)-2,3-dihydroquinazolin-4(1H)-one] here?
A: The IC50 was 501 nM.

Q: How did the IC50 turn out when `Cc1cc(F)ccc1N1CN(c2ccc(=O)[nH]n2)C(=O)c2ccc(C(F)(F)F)cc21` [drawing 307, 1-(4-fluoro-2-methylphenyl)-3-(6-oxo-1,6-dihydropyridazin-3-yl)-7-(trifluoromethyl)-2,3-dihydroquinazolin-4(1H)-one] was run?
A: Its IC50 is 2000 nM.

Q: `Cc1cc(F)ccc1N1CN(c2ncc(=O)[nH]c2C)C(=O)c2ccc(C(F)(F)F)cc21` [drawing 308, 1-(4-fluoro-2-methylphenyl)-3-(3-methyl-5-oxo-4,5-dihydropyrazin-2-yl)-7-(trifluoromethyl)-2,3-dihydroquinazolin-4(1H)-one] was tested. Which IC50 did it give?
A: Its IC50 is 398 nM.

same assay, conditions: Table 2; HEK293-Nav1.8, QPatch 48 HTX, half inactivation state voltage protocol (V1/2); single run or average of two or more runs; read-out: Nav1.8 pIC50 (converted)

Q: How did the IC50 turn out when `Cc1cc(F)ccc1N1CN(c2cc[nH]c(=O)c2)C(=O)c2ccc(C(F)(F)F)cc21` [drawing 309, 1-(4-fluoro-2-methylphenyl)-3-(2-oxo-1,2-dihydropyridin-4-yl)-7-(trifluoromethyl)-2,3-dihydroquinazolin-4(1H)-one] was run?
A: The IC50 was 398 nM.

Q: How did the IC50 turn out when `Cc1cc(N2CN(c3ccc(F)cc3C)c3cc(C(F)(F)F)ccc3C2=O)cc(=O)[nH]1` [drawing 310, 1-(4-fluoro-2-methylphenyl)-3-(6-methyl-2-oxo-1,2-dihydropyridin-4-yl)-7-(trifluoromethyl)-2,3-dihydroquinazolin-4(1H)-one] was run?
A: The IC50 was 2510 nM.

Q: With `Cc1c[nH]c(=O)cc1N1CN(c2ccc(F)cc2C)c2cc(C(F)(F)F)ccc2C1=O` [drawing 311, 1-(4-fluoro-2-methylphenyl)-3-(5-methyl-2-oxo-1,2-dihydropyridin-4-yl)-7-(trifluoromethyl)-2,3-dihydroquinazolin-4(1H)-one] as the compound, how does the IC50 read?
A: The IC50 was 1000 nM.

Q: With `Cc1cc(F)ccc1N1CN(c2cc[nH]c(=O)c2C)C(=O)c2ccc(C(F)(F)F)cc21` [drawing 312, 1-(4-fluoro-2-methylphenyl)-3-(3-methyl-2-oxo-1,2-dihydropyridin-4-yl)-7-(trifluoromethyl)-2,3-dihydroquinazolin-4(1H)-one] as the compound, how does the IC50 read?
A: Its IC50 is 1260 nM.
